Experiment [1] concerns Puccinia recondita f. Sp. Tritici. Description: Fungicidal activity against Puccinia recondita f. sp. tritici / wheat / leaf disc curative (brown rust). Type of experiment: in vivo. To be noted: foliar, 24 h, 200 ppm in the applied formulation, wheat leaf segments, curative (applied 1 day after inoculation), compared to untreated control leaf disks, read-out: disease control. As to the method: Leaf disks or leaf segments of various plant species are cut from plants grown in a greenhouse. The cut leaf disks or segments are placed in multiwell plates (24-well format) onto water agar. The leaf disks are sprayed with a test solution before (preventative) or after (curative) inoculation. Compounds to be tested are prepared as DMSO solutions (max. 10 mg/ml) which are diluted to the appropriate concentration with 0.025% Tween20 just before spraying. The inoculated leaf disks or segments are incubated under defined conditions (temperature, relative humidity, light, etc.) according to the respective test system. A single evaluation of disease level is carried out 3 to 14 days after inoculation, depending on the pathosystem. Percent disease control relative to the untreated check leaf disks or segments is then calculated.
Fungicidal Activity Against Puccinia recondita f. Sp. Tritici/Wheat/Leaf Disc Curative (Brown Rust)
Wheat leaf segments cv. Kanzler are placed on agar in multiwell plates (24-well format). The leaf segments are then inoculated with a spore suspension of the fungus. Plates were stored in darkness at 19° C. and 75% relative humidity. The formulated test compound diluted in water was applied 1 day after inoculation. The leaf segments were incubated at 19° C. and 75% relative humidity under a light regime of 12 hours light/12 hours darkness in a climate cabinet and the activity of a compound was assessed as percent disease control compared to untreated when an appropriate level of disease damage appears in untreated check leaf segments (6 to 8 days after application).
The following compounds at 200 ppm in the applied formulation give at least 80% disease control in this test when compared to untreated control leaf disks under the same conditions, which show extensive disease development.

For experiment [2], the system named is Glomerella lagenarium (Colletotrichum lagenarium). Description: Fungicidal activity against Glomerella lagenarium (Colletotrichum lagenarium) liquid culture / cucumber / preventative (anthracnose). Type of experiment: cell-based. To be noted: Colletotrichum orbiculare; 20 ppm in the applied formulation; liquid culture (PDB), growth inhibition measured photometrically after 3 to 4 days; compared to untreated control; read-out: disease control. Summed up:
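Percent activity against the untreated check was derived from photometric growth measurements made 2 to 7 days after conidia in potato dextrose broth were combined with compound at 20 ppm. Cultures were kept dark at 24 °C and 96% humidity.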

The test system of experiment [3] is Puccinia recondita f. Sp. Tritici. Description: Fungicidal activity against Puccinia recondita f. sp. tritici / wheat / leaf disc preventative (brown rust). The note with it: foliar, 200 ppm in the applied formulation, wheat leaf segments, preventative, compared to untreated control leaf disks, read-out: disease control. The experiment is classed as in vivo. In a few lines:
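Percent disease control relative to untreated check segments is scored once disease develops, 7 to 9 days after application. Wheat cv. Kanzler segments receive compound spray (200 ppm in formulation) one day before spore inoculation, then sit at 19° C. and 75% rh under 12 h light/12 h dark.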

For the molecule `CCCC(C)(C)C(=O)N(Cc1ccc(-c2noc(C(F)(F)F)n2)cc1)CC1CC1` [Compound 1.204, N-(cyclopropylmethyl)-2,2-dimethyl-N-[[4-[5-(trifluoromethyl)-1,2,4-oxadiazol-3-yl]phenyl]methyl]-pentanamide], the pest or weed control at 200 ppm in experiment [1] is at least 80%.
With `O=C(C1CC1F)N(Cc1ccc(-c2noc(C(F)(F)F)n2)cc1)CC1CCCO1` (centres unmarked) [Compound 1.445, 2-fluoro-N-(tetrahydrofuran-2-ylmethyl)-N-[[4-[5-(trifluoromethyl)-1,2,4-oxadiazol-3-yl]phenyl]methyl]-cyclopropane-carboxamide], in experiment [1], the pest or weed control at 200 ppm is at least 80%. Also, the inhibition of growth at 20 ppm in experiment [2] is at least 80%.
With `C=CCOC(=O)N(Cc1ccc(-c2noc(C(F)(F)F)n2)cc1)OC` [Compound 2.11, allyl N-methoxy-N-[[4-[5-(trifluoromethyl)-1,2,4-oxadiazol-3-yl]phenyl]methyl]-carbamate], the pest or weed control at 200 ppm in experiment [1] is at least 80%. Further, the inhibition of growth at 20 ppm in experiment [2] is at least 80%.
For the molecule `C#CCOC(=O)N(Cc1ccc(-c2noc(C(F)(F)F)n2)cc1)OC` [Compound 2.20, prop-2-ynyl N-methoxy-N-[[4-[5-(trifluoromethyl)-1,2,4-oxadiazol-3-yl]phenyl]methyl]-carbamate], the pest or weed control at 200 ppm in experiment [1] was at least 80%. Besides, in experiment [2], the inhibition of growth at 20 ppm was at least 80%.
Regarding `CON(Cc1ccc(-c2noc(C(F)(F)F)n2)cc1)C(=O)OCCF` [Compound 2.15, 2-fluoroethyl N-methoxy-N-[[4-[5-(trifluoromethyl)-1,2,4-oxadiazol-3-yl]phenyl]methyl]-carbamate], the pest or weed control at 200 ppm in experiment [1] was at least 80%. Moreover, in experiment [2], the inhibition of growth at 20 ppm is at least 80%.
As for `CC(=O)N1CCCC1C(=O)N(Cc1ccc(-c2noc(C(F)(F)F)n2)cc1)CC1CCCO1` (centres unmarked) [Compound 1.444, 1-acetyl-N-(tetrahydrofuran-2-ylmethyl)-N-[[4-[5-(trifluoromethyl)-1,2,4-oxadiazol-3-yl]phenyl]methyl]-pyrrolidine-2-carboxamide], the pest or weed control at 200 ppm in experiment [1] is at least 80%.
As for `CON(Cc1ccc(-c2noc(C(F)(F)F)n2)cc1)C(=O)c1cccc2ccccc12` [Compound 1.37], the pest or weed control at 200 ppm in experiment [1] was at least 80%. Further, the inhibition of growth at 20 ppm in experiment [2] is at least 80%.
For the molecule `O=C(C1CCCC1)N(Cc1ccc(-c2noc(C(F)(F)F)n2)cc1)Cc1ccco1` [Compound 1.455, N-(2-furylmethyl)-N-[[4-[5-(trifluoromethyl)-1,2,4-oxadiazol-3-yl]phenyl]methyl]-cyclopentane-carboxamide], the pest or weed control at 200 ppm in experiment [1] is at least 80%. Also, the inhibition of growth at 20 ppm in experiment [2] is at least 80%.
For `C#CCN(Cc1ccc(-c2noc(C(F)(F)F)n2)cc1)C(=O)C(C)(C)CCC` [Compound 1.153, 2,2-dimethyl-N-prop-2-ynyl-N-[[4-[5-(trifluoromethyl)-1,2,4-oxadiazol-3-yl]phenyl]methyl]-pentanamide], the pest or weed control at 200 ppm in experiment [1] was at least 80%. Also, in experiment [2], the inhibition of growth at 20 ppm was at least 80%.
As for `CON(Cc1ccc(-c2noc(C(F)(F)F)n2)cc1)C(=O)OCCCl` [Compound 2.17, 2-chloroethyl N-methoxy-N-[[4-[5-(trifluoromethyl)-1,2,4-oxadiazol-3-yl]phenyl]methyl]-carbamate], in experiment [1], the pest or weed control at 200 ppm is at least 80%. Also, in experiment [2], the inhibition of growth at 20 ppm was at least 80%.
On to `O=C(c1ccccc1Cl)N(Cc1ccc(-c2noc(C(F)(F)F)n2)cc1)C1CC1` [Compound 1.120, 2-chloro-N-cyclopropyl-N-[[4-[5-(trifluoromethyl)-1,2,4-oxadiazol-3-yl]phenyl]methyl]-benzamide], for which, in experiment [3], the pest or weed control at 200 ppm was at least 80%. In experiment [2], the inhibition of growth at 20 ppm is at least 80%.
In the case of `O=C(C1CC1(F)F)N(Cc1ccc(-c2noc(C(F)(F)F)n2)cc1)Cc1ccco1` (centres unmarked) [Compound 1.464, 2,2-difluoro-N-(2-furylmethyl)-N-[[4-[5-(trifluoromethyl)-1,2,4-oxadiazol-3-yl]phenyl]methyl]-cyclopropane-carboxamide], the pest or weed control at 200 ppm in experiment [3] was at least 80%. Also, in experiment [2], the inhibition of growth at 20 ppm is at least 80%.
For `COCCN(Cc1ccc(-c2noc(C(F)(F)F)n2)cc1)C(=O)C=CC(F)(F)F` [Compound 1.338, 4,4,4-trifluoro-N-(2-methoxyethyl)-N-[[4-[5-(trifluoromethyl)-1,2,4-oxadiazol-3-yl]phenyl]methyl]but-2-enamide], the pest or weed control at 200 ppm in experiment [3] is at least 80%. The inhibition of growth at 20 ppm in experiment [2] was at least 80%.
For the molecule `CON(Cc1ccc(-c2noc(C(F)(F)F)n2)cc1)C(=O)c1cccc2nnsc12` [Compound 1.67, N-methoxy-N-[[4-[5-(trifluoromethyl)-1,2,4-oxadiazol-3-yl]phenyl]methyl]-1,2,3-benzothiadiazole-7-carboxamide], the pest or weed control at 200 ppm in experiment [3] was at least 80%. Moreover, in experiment [2], the inhibition of growth at 20 ppm is at least 80%.
Take `C#CCN(Cc1ccc(-c2noc(C(F)(F)F)n2)cc1)C(=O)CCc1ccc(Cl)cc1` [Compound 1.160, 3-(4-chlorophenyl)-N-prop-2-ynyl-N-[[4-[5-(trifluoromethyl)-1,2,4-oxadiazol-3-yl]phenyl]methyl]-propanamide]: the pest or weed control at 200 ppm in experiment [1] was at least 80%.
With `O=C(Cc1cccnc1)N(Cc1ccc(-c2noc(C(F)(F)F)n2)cc1)CC1CC1` [Compound 1.214, N-(cyclopropylmethyl)-2-(3-pyridyl)-N-[[4-[5-(trifluoromethyl)-1,2,4-oxadiazol-3-yl]phenyl]methyl]-acetamide], in experiment [3], the pest or weed control at 200 ppm was at least 80%. In addition, the inhibition of growth at 20 ppm in experiment [2] is at least 80%.
For `O=C(C1CCC1)N(Cc1ccc(-c2noc(C(F)(F)F)n2)cc1)CC1CCCO1` (centres unmarked) [Compound 1.424, N-(tetrahydrofuran-2-ylmethyl)-N-[[4-[5-(trifluoromethyl)-1,2,4-oxadiazol-3-yl]phenyl]methyl]-cyclobutane-carboxamide], the pest or weed control at 200 ppm in experiment [3] was at least 80%. Moreover, the inhibition of growth at 20 ppm in experiment [2] is at least 80%.
With `CCCCC(=O)N(Cc1ccc(-c2noc(C(F)(F)F)n2)cc1)CC1CCCO1` (centres unmarked) [Compound 1.453, N-(tetrahydrofuran-2-ylmethyl)-N-[[4-[5-(trifluoromethyl)-1,2,4-oxadiazol-3-yl]phenyl]methyl]-pentanamide], the pest or weed control at 200 ppm in experiment [3] was at least 80%. Further, the inhibition of growth at 20 ppm in experiment [2] is at least 80%.
`CON(C(=O)C1CC1(F)F)C(C)c1ccc(-c2noc(C(F)(F)F)n2)cc1` (centres unmarked) [Compound 1.251, 2,2-difluoro-N-methoxy-N-[1-[4-[5-(trifluoromethyl)-1,2,4-oxadiazol-3-yl]phenyl]ethyl]-cyclopropane-carboxamide]: the pest or weed control at 200 ppm in experiment [3] was at least 80%. The inhibition of growth at 20 ppm in experiment [2] is at least 80%.
Take `C#CCC(NS(=O)(=O)CC)C(=O)N(Cc1ccc(-c2noc(C(F)(F)F)n2)cc1)C1CC1` (centres unmarked) [Compound 1.137, N-cyclopropyl-2-(ethylsulfonylamino)-N-[[4-[5-(trifluoromethyl)-1,2,4-oxadiazol-3-yl]phenyl]methyl]pent-4-ynamide]: the pest or weed control at 200 ppm in experiment [1] was at least 80%.
In the case of `O=C(c1ccc(Cl)cc1)N(Cc1ccc(-c2noc(C(F)(F)F)n2)cc1)C1CC1` [Compound 1.142, 4-chloro-N-cyclopropyl-N-[[4-[5-(trifluoromethyl)-1,2,4-oxadiazol-3-yl]phenyl]methyl]-benzamide], the pest or weed control at 200 ppm in experiment [3] was at least 80%. The inhibition of growth at 20 ppm in experiment [2] is at least 80%.

The values are drawn from US11180462B2, “Microbiocidal oxadiazole derivatives” (SYNGENTA PARTICIPATIONS AG, priority 2015, dated 2021).
